Source: patent US11479546B2, “Antimalarial hexahydropyrimidine analogues” (UCB Biopharma SRL, priority 2018, dated 2022)

System: Plasmodium falciparum 3D7
Assay: P. falciparum 3D7 asexual blood stage assay, Assay Procedure Version 1 (SYBR green readout)
Format: cell-based
Conditions: 3D7, Erythrocyte, Version 1 of the assay procedure (no asterisk), 72 h incubation in infected erythrocytes, 10,000 nM to 0.51 nM
Procedure: Asexual Blood Stage Assay
The assay used to measure the effect of test compounds on a bloodstream stage of Plasmodium falciparum 3D7 strain employs SYBR green as the readout. This is a dye that binds to double stranded deoxyribonucleic acid (DNA) with a resulting increase in fluorescence, allowing detection of P. falciparum DNA in infected erythrocytes, and thereby providing a measure of parasite growth and propagation.
P. falciparum Culture Maintenance
Erythrocytes (A+blood) were prepared for both parasite culture and assay by washing 4 times with incomplete media (15.9 g RPMI 1640 (25 mM HEPES, L-glutamine), 1 g NaHCO3, 2 g glucose, 400 μL gentacin (500 mg/mL), 2 mL hypoxanthine solution (13.6 g/L in 0.1M NaOH pH 7.3) in 1 litre of media). The cells were centrifuged at 1800 g for 5 minutes, before decanting the supernatant and re-suspending in fresh incomplete media. On the final wash, the cells were re-suspended in complete media (incomplete media with 5 g/L AlbumaxII), and centrifuged at 1800 g for 3 minutes. This cell sediment was treated as 100% haematocrit.
P. falciparum 3D7 was cultured in erythrocytes at 5% haematocrit in complete media at 37° C. (1% O2, 3% CO2, balance N2). Cultures were split on a weekly basis to achieve a 1% parasitaemia in erythrocites at 5% haematocrit in fresh media. Culture media is replaced by fresh media every other day (2 times during the week).
Assay Procedure—Version 1
On day 1, test compounds were added to assay plates using Echo dispensing technology (3 fold dilution and 10 points titration). 50 nL of each compound dilution was added to 50 μL of culture (5% haematocrit, 0.5% parasitaemia) and incubated for 72 h at 37° C. (1% O2, 3% CO2, balance N2). Final concentrations of test compounds ranged from 10,000 nM to 0.51 nM, in […].
On day 4, 10 μL SYBR green (Invitrogen S7563 supplied as 10,000×concentrate in DMSO) pre-diluted to 3× concentrate with Lysis buffer (20 mM Tris pH 7.9, 5% EDTA, 0.16% w/v, 1.6% TX100 v/v) was added to the cultures and incubated in the dark, overnight, at room temperature.
On day 5, fluorescent signal was measured using a BioTek plate reader (excitation 485 nm, emission 528 nm). All data were processed using IDBS ActivityBase. Raw data were converted into percent inhibition through linear regression by setting the high inhibition control as 100% and the no inhibition control as 0%. Quality control criteria for passing plates were as follows: Z′>0.5, S:B>3, % CV(no inhibition control)<15. The formula used to calculate Z′ is
All EC50 curve fitting was undertaken using the following 4 parametric equation:
[formula] where A=% inhibition at bottom; B=% inhibition at top; C=EC50; D=slope; x=inhibitor concentration; and y=% inhibition. […] Assay Procedure—Version 2

Row | SMILES | IC50 [nM]
1 | C[C@@H]1C[C@H](N2C(=N)N[C@](C)(c3cccc(Nc4cnc(C5CC5)nc4)c3Cl)CC2=O)CCO1 (relative stereo) [Example 204, (6S)-6-{2-Chloro-3-[(2-cyclo-propylpyrimidin-5-yl)amino]-phenyl}-2-imino-6-methyl-3-[(2R*,4R*)-2-methyltetrahydro-pyran-4-yl]hexahydropyrimidin-4-one] | 31
2 | C[C@@]1(c2cccc(Nc3ccccc3)c2Cl)CC(=O)N([C@@H]2CCOC2)C(=N)N1 (relative stereo) [Example 6, (6S)-6-(3-Anilino-2-chloro-phenyl)-2-imino-6-methyl-3-[(3S or 3R*)-tetrahydrofuran-3-yl]hexahydropyrimidin-4-one] | 70
3 | Cc1cccc(Nc2cccc([C@]3(C)CC(=O)N(C4CCOCC4)C(=N)N3)c2Cl)c1 [Example 8, (6S)-6-[2-Chloro-3-(3-methyl-anilino)phenyl]-2-imino-6-methyl-3-(tetrahydropyran-4-yl)hexahydropyrimidin-4-one] | 330
4 | C[C@@]1(c2cccc(Nc3ccc(F)cc3)c2Cl)CC(=O)N([C@@H]2CCCOC2)C(=N)N1 (relative stereo) [Example 190, (6S)-6-[2-Chloro-3-(4-fluoro-anilino)phenyl]-2-imino-6-methyl-3-[(3R* or 3S)-tetrahydropyran-3-yl]-hexahydropyrimidin-4-one] | 2580
5 | C[C@@]1(c2cccc(Nc3ccc(F)cc3)c2Cl)CC(=O)N(C2CCOCC2)C(=N)N1 [Example 12, (6S)-6-[2-Chloro-3-(4-fluoro-anilino)phenyl]-2-imino-6-methyl-3-(tetrahydropyran-4-yl)hexahydropyrimidin-4-one] | 200
6 | C[C@@]1(c2cccc(Nc3ccc(OC(F)F)cc3)c2Cl)CC(=O)N(C2CCOCC2)C(=N)N1 [Example 37, (6S)-6-{2-Chloro-3-[4-(difluoro-methoxy)anilino]phenyl}-2-imino-6-methyl-3-(tetrahydro-pyran-4-yl)hexahydropyrimidin-4-one] | 1150
7 | Cc1cc(Nc2cccc([C@]3(C)CC(=O)N(C4CCOCC4)C(=N)N3)c2Cl)ccc1F [Example 10, (6S)-6-[2-Chloro-3-(4-fluoro-3-methylanilino)phenyl]-2-imino-6-methyl-3-(tetrahydropyran-4-yl)hexahydropyrimidin-4-one] | 690
8 | C[C@@]1(c2cccc(Nc3cccc(F)c3)c2Cl)CC(=O)N(C2CCOCC2)C(=N)N1 [Example 168, (6S)-6-[2-Chloro-3-(3-fluoro-anilino)phenyl]-2-imino-6-methyl-3-(tetrahydropyran-4-yl)hexahydropyrimidin-4-one] | 252
9 | C[C@@]1(c2cccc(Nc3ccccc3F)c2Cl)CC(=O)N(C2CCOCC2)C(=N)N1 [Example 36, (6S)-6-[2-Chloro-3-(2-fluoro-anilino)phenyl]-2-imino-6-methyl-3-(tetrahydropyran-4-yl)hexahydropyrimidin-4-one] | 2900
10 | C[C@@]1(c2cccc(Nc3ccc(F)c(Cl)c3)c2Cl)CC(=O)N(C2CCOCC2)C(=N)N1 [Example 167, (6S)-6-[2-Chloro-3-(3-chloro-4-fluoroanilino)phenyl]-2-imino-6-methyl-3-(tetrahydropyran-4-yl)hexahydropyrimidin-4-one] | 627
11 | C[C@@]1(c2cccc(Nc3ccc(C#N)cc3)c2Cl)CC(=O)N(C2CCOCC2)C(=N)N1 [Example 18, 4-{2-Chloro-3-[(4S)-2-imino-4-methyl-6-oxo-1-(tetrahydro-pyran-4-yl)hexahydropyrimidin-4-yl]anilino}benzonitrile] | 534
12 | COc1cc(F)cc(Nc2cccc([C@]3(C)CC(=O)N(C4CCOCC4)C(=N)N3)c2Cl)c1 [Example 23, (6S)-6-[2-Chloro-3-(3-fluoro-5-methoxyanilino)phenyl]-2-imino-6-methyl-3-(tetrahydro-pyran-4-yl)hexahydropyrimidin-4-one] | 1340
13 | Cc1ccc(Nc2cccc([C@]3(C)CC(=O)N(C4CCOCC4)C(=N)N3)c2Cl)cn1 [Example 14, (6S)-6-{2-Chloro-3-[(6-methyl-pyridin-3-yl)amino]phenyl}-2-imino-6-methyl-3-(tetrahydro-pyran-4-yl)hexahydropyrimidin-4-one] | 280
14 | C[C@@]1(c2cccc(Nc3ccc(C#N)c(Cl)c3)c2Cl)CC(=O)N(C2CCOCC2)C(=N)N1 [Example 24, 2-Chloro-4-{2-chloro-3-[(4S)-2-imino-4-methyl-6-oxo-1-(tetrahydropyran-4-yl)-hexahydropyrimidin-4-yl]-anilino}benzonitrile] | 1670
15 | CC1(CN2C(=N)N[C@](C)(c3cccc(Nc4ccc(F)cc4)c3Cl)CC2=O)COC1 [Example 175, (6S)-6-[2-Chloro-3-(4-fluoro-anilino)phenyl]-2-imino-6-methyl-3-[(3-methyloxetan-3-yl)methyl]hexahydropyrimidin-4-one] | 2820
16 | Cc1ncccc1Nc1cccc([C@]2(C)CC(=O)N(C3CCOCC3)C(=N)N2)c1Cl [Example 28, (6S)-6-{2-Chloro-3-[(2-methyl-pyridin-3-yl)amino]phenyl}-2-imino-6-methyl-3-(tetrahydro-pyran-4-yl)hexahydropyrimidin-4-one] | 2960
17 | C[C@@]1(c2cccc(Nc3ccc(F)cc3F)c2Cl)CC(=O)N([C@H]2C[C@@](C)(O)C2)C(=N)N1 [Example 120, (6S)-6-[2-Chloro-3-(2,4-difluoroanilino)phenyl]-3-(3-hydroxy-3-methylcyclobutyl)-2-imino-6-methylhexahydro-pyrimidin-4-one] | 652
18 | C[C@@]1(c2cccc(Nc3ccccc3)c2Cl)CC(=O)N([C@H]2C[C@@](C)(O)C2)C(=N)N1 [Example 13, (6S)-6-(3-Anilino-2-chloro-phenyl)-3-(3-hydroxy-3-methyl-cyclobutyl)-2-imino-6-methyl-hexahydropyrimidin-4-one] | 230

Results, then the compound that gave them:

Row | IC50 [nM] | SMILES
19 | 1530 | C[C@@]1(c2cccc(Nc3ccccc3Cl)c2Cl)CC(=O)N(C2CCOCC2)C(=N)N1 [Example 15, (6S)-6-[2-Chloro-3-(2-chloro-anilino)phenyl]-2-imino-6-methyl-3-(tetrahydropyran-4-yl)hexahydropyrimidin-4-one]
20 | 2290 | C[C@@]1(c2cccc(Nc3ccccc3C(F)(F)F)c2Cl)CC(=O)N(C2CCOCC2)C(=N)N1 [Example 16, (6S)-6-{2-Chloro-3-[2-(trifluoromethyl)anilino]-phenyl}-2-imino-6-methyl-3-(tetrahydropyran-4-yl)-hexahydropyrimidin-4-one]
21 | 640 | C[C@@]1(c2cccc(Nc3cnc4ccccc4c3)c2Cl)CC(=O)N(C2CCOCC2)C(=N)N1 [Example 30, (6S)-6-[2-Chloro-3-(quinolin-3-ylamino)phenyl]-2-imino-6-methyl-3-(tetrahydropyran-4-yl)hexahydropyrimidin-4-one]
22 | 150 | C[C@@]1(c2cccc(Nc3ccccc3)c2Cl)CC(=O)N(C2CCOCC2)C(=N)N1 [Example 2, (6S)-6-(3-Anilino-2-chloro-phenyl)-2-imino-6-methyl-3-(tetrahydropyran-4-yl)-hexahydropyrimidin-4-one]
23 | 228 | CC1(O)CC(N2C(=N)N[C@](C)(c3cccc(Nc4ccc(F)cc4)c3Cl)CC2=O)C1 (stereo partly drawn) [Example 172, (6S)-6-[2-Chloro-3-(4-fluoro-anilino)phenyl]-3-(3-hydroxy-3-methylcyclobutyl)-2-imino-6-methylhexahydropyrimidin-4-one]
24 | 820 | C[C@@]1(c2cccc(Nc3ccc(C(F)(F)F)cc3)c2Cl)CC(=O)N(C2CCOCC2)C(=N)N1 [Example 11, (6S)-6-{2-Chloro-3-[4-(tri-fluoromethyl)anilino]phenyl}-2-imino-6-methyl-3-(tetrahydro-pyran-4-yl)hexahydropyrimidin-4-one]
25 | 1660 | C[C@@]1(c2cccc(Nc3ccc(C#N)c(F)c3)c2Cl)CC(=O)N([C@H]2C[C@@](C)(O)C2)C(=N)N1 [Example 121, 4-{2-Chloro-3-[(4S)-1-(3-hydroxy-3-methylcyclobutyl)-2-imino-4-methyl-6-oxo-hexahydropyrimidin-4-yl]-anilino}-2-fluorobenzonitrile]
26 | 539 | C[C@@]1(c2cccc(Nc3ccnc(F)c3)c2Cl)CC(=O)N(C2CCOCC2)C(=N)N1 [Example 29, (6S)-6-{2-Chloro-3-[(2-fluoro-pyridin-4-yl)amino]phenyl}-2-imino-6-methyl-3-(tetrahydro-pyran-4-yl)hexahydropyrimidin-4-one]
